Assay results as given in publication PMC5818190, “An allosteric binding site of the α7 nicotinic acetylcholine receptor revealed in a humanized acetylcholine-binding protein” (The Journal of Biological Chemistry, 2017).

Target: T1, human α7 nAChR (Homo sapiens, UniProt P36544)
T1 construct: gene CHRNA7; full-length receptor, cRNA from pMXT vector, Xenopus laevis oocytes; homomeric pentamer
Test: two-electrode voltage clamp, Xenopus oocytes
Format: cell-based

T1 sequence (P36544 23-502): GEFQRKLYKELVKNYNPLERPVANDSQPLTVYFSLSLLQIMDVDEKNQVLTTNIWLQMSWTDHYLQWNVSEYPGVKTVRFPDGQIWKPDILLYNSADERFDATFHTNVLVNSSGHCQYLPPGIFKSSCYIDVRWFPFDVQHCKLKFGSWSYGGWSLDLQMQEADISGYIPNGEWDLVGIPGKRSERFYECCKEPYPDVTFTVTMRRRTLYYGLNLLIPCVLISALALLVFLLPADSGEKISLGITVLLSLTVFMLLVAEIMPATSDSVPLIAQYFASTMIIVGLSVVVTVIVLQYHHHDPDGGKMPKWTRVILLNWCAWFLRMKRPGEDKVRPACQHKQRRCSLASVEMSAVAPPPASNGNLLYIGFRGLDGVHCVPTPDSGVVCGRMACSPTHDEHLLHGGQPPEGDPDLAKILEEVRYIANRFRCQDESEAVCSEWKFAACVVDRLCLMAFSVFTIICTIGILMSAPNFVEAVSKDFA

O=C(Nc1ccc(Br)cn1)[C@@H]1CCCNC1 [CU2017, N-(5-bromopyridin-2-yl)piperidine-3-carboxamide]
IC50: 26.7 ± 1.6 µM
